Results: BindingDB's records for doi:10.1021/ml200030q (2011)

experiment: Antagonist activity at CCR2 in human PBMC assessed as inhibition of MCP1-induced chemotaxis after 30 mins

SMILES	IC50 [nM]
O=C(CNC(=O)c1cccc(C(F)(F)F)c1)N[C@@H]1CCN([C@H]2CC[C@@](O)(c3cncnc3)CC2)C1	20
CCOc1ccc([C@]2(O)CC[C@H](N3CC[C@@H](NC(=O)CNC(=O)c4cccc(C(F)(F)F)c4)C3)CC2)cn1	2.7
O=C(CNC(=O)c1cccc(C(F)(F)F)c1)N[C@@H]1CCN([C@H]2CC[C@@](O)(c3cccnn3)CC2)C1	5.8
O=C(CNC(=O)c1cccc(C(F)(F)F)c1)N[C@@H]1CCN([C@H]2CC[C@@](O)(c3ncccn3)CC2)C1	9.3

Continued, values first:

IC50 [nM]	SMILES
3	O=C(CNC(=O)c1cccc(C(F)(F)F)c1)N[C@@H]1CCN([C@H]2CC[C@@](O)(c3ccncc3)CC2)C1
7.2	O=C(CNC(=O)c1cccc(C(F)(F)F)c1)N[C@@H]1CCN([C@H]2CC[C@@](O)(c3ccnnc3)CC2)C1
5.6	Cc1ccc([C@]2(O)CC[C@H](N3CC[C@@H](NC(=O)CNC(=O)c4cccc(C(F)(F)F)c4)C3)CC2)cn1
3.9	O=C(CNC(=O)c1cccc(C(F)(F)F)c1)N[C@@H]1CCN([C@H]2CC[C@@](O)(c3cccnc3)CC2)C1

experiment: Antagonist activity at mouse CCR2 assessed as inhibition of MCP1-induced chemotaxis after 30 mins

IC50 [nM]	SMILES
156	Cc1ccc([C@]2(O)CC[C@H](N3CC[C@@H](NC(=O)CNC(=O)c4cccc(C(F)(F)F)c4)C3)CC2)cc1
